Experimental data as given in PMC8029583 (ACS chemical biology, 2020).
Where a SMILES comes first, the peptide text is derived from it.

What was measured:
[1] = molecular target: T1, ComR receptor (Streptococcus mutans serotype c, UniProt Q8DWI6); experiment: β-galactosidase reporter activation; assay type: cell-based
[2] = molecular target: T1, ComR receptor; experiment: β-galactosidase reporter inhibition; assay type: cell-based; conditions: SMCOM2 in CDM; primary antagonism screening (Figure S-3)

CC(C)C[C@H](NC(=O)[C@H](C)NC(=O)[C@H](Cc1c[nH]c2ccccc12)NC(=O)[C@H](Cc1c[nH]c2ccccc12)NC(=O)[C@H](C)NC(=O)[C@H](CC(C)C)NC(=O)[C@H](C)N)C(=O)O [XIP-G1AD3AS6A (P30), ALAWWAL] (H-ALAWWAL-OH)
comX activation (partial agonist) ([1]; SMCOM2 in CDM, from dose response curve): ~ 30%

CC(C)C[C@H](NC(=O)CN)C(=O)N[C@@H](CC(=O)O)C(=O)N[C@@H](Cc1c[nH]c2ccccc12)C(=O)N[C@@H](Cc1c[nH]c2ccccc12)C(=O)N[C@@H](CO)C(=O)N[C@@H](C)C(=O)O [XIP-L7A (P8), GLDWWSA] (H-GLDWWSA-OH)
inhibition of ComR activation [2]: ~ 80%

CC(C)C[C@H](NC(=O)[C@H](CO)NC(=O)[C@H](Cc1c[nH]c2ccccc12)NC(=O)[C@H](C)NC(=O)[C@H](CC(=O)O)NC(=O)[C@H](CC(C)C)NC(=O)CN)C(=O)O [XIP-W4A (P5), GLDAWSL] (H-GLDAWSL-OH)
inhibition of ComR activation [2]: ~ 90%

GLD [XIP-Des-W4W5S6L7 (P43)]
activity / agonism against ComR (in words) ([1]; SMCOM2 reporter in CDM): inactive

GLdWWSL [XIP-d3 (P10)]
activation ([1]; SMCOM2 in CDM, at 100 μM concentration): ~ 45%
